# Results taken from US6838478B2, “Amino acid derivatives and their use as thrombin inhibitors” (AstraZeneca AB, priority 1996, dated 2005).
# Target: T1, Human thrombin (Homo sapiens, UniProt P00734)
# T1 construct: purchased Sigma Chem Co T 6769
# Test: Test A: determination of thrombin clotting time (TT)
# Assay type: biochemical
# Details: concentration of inhibitor that doubles the thrombin clotting time for human plasma
# Protocol: Determination of Thrombin Clotting Time (TT)
# Human thrombin (T 6769, Sigma Chem Co) in buffer solution, pH 7.4, 100 μI, and inhibitor solution, 100 μl, were incubated for one min. Pooled normal citrated human plasma, 100 μl, was then added and the clotting time measured in an automatic device (KC 10, Amelung).
# The clotting time in seconds was plotted against the inhibitor concentration, and the IC50TT was determined by interpolation.
# IC50TT is the concentration of inhibitor in the test that doubles the thrombin clotting time for human plasma.
row,Structure (SMILES),IC50
1,"COCC(C)(C(=O)N1CCCC1C(=O)NCc1ccc(C(N)=NC(=O)OCc2ccccc2)cc1)c1ccccc1 [Example 40, (R,S)-Ph-C(Me)(CH2OMe)-C(O)-Pro-Pab(Z)]",> 1000 nM
2,"NC(=NO)c1ccc(CNC(=O)C2CCCN2C(=O)C(CO)c2ccccc2)cc1 [Example 8, (R,S)-Ph-CH(CH2OH)—C(O)-Pro-Pab-OH]",> 1000 nM
3,"COc1cccc(C(CO)C(=O)N2CCCC2C(=O)NCc2ccc(C(N)=NC(=O)OCc3ccccc3)cc2)c1 (single isomer, unassigned) [Example 10, (S)- or (R)-3-Methoxyphenyl-CH(CH2OH)CO-Pro-Pab(Z)]",> 1000 nM
4,"COc1cccc(C(CO)C(=O)N2CCC2C(=O)NCc2ccc(C(N)=NO)cc2)c1 (single isomer, unassigned) [Example 9, (R)- or (S)-3-Methoxyphenyl-CH(CH2OH)—C(O)-Aze-Pab-OH]",> 1000 nM
5,"CCC(=O)ON=C(N)c1ccc(CNC(=O)C2CCCN2C(=O)C(CO)c2cccc(OC)c2)cc1 (single isomer, unassigned) [Example 14, (S)- or (R)-3-Methoxyphenyl-CH(CH2OH)—C(O)-Pro-Pab-OC(O)Et]",> 1000 nM
6,"COc1cccc(C(CO)C(=O)N2CCCC2C(=O)NCc2ccc(C(N)=NO)cc2)c1 (single isomer, unassigned) [Example 13, (S)- or (R)-3-Methoxyphenyl-CH(CH2OH)—C(O)-Pro-Pab-OH]",> 1000 nM
